{"source": "patent US20160272617A1", "about": "“SUBSTITUTED PHENYLALANINE DERIVATIVES” (BAYER PHARMA AKTIENGESELLSCHAFT, priority 2013, published 2016)", "key": {"[1]": {"biological_target": "T1, human factor XIa (Homo sapiens, UniProt P03951)", "T1 construct": "purchased Kordia", "T1 sequence (P03951 388-625 limits assumed)": "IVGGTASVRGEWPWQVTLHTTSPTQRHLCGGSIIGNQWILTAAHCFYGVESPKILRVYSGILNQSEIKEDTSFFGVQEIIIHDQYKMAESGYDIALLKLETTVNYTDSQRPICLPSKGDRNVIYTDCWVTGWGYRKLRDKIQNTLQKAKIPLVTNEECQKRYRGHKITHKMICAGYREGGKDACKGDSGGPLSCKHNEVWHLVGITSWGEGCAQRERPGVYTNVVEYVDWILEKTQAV", "T1 sequence (P03951 19-387 partner limits assumed)": "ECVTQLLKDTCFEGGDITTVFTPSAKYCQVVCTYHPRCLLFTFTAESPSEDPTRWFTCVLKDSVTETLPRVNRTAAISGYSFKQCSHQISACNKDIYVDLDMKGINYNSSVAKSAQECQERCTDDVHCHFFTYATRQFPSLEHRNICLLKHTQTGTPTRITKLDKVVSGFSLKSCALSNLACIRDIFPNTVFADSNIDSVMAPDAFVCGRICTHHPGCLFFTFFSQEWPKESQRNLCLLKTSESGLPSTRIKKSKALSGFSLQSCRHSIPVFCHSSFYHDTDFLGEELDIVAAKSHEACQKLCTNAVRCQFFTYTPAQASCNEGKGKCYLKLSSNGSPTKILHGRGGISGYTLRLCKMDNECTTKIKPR", "assay": "Measurement of FXIa inhibition (fluorogenic peptide substrate Boc-Glu(OBzl)-Ala-Arg-AMC)", "type": "biochemical", "details": "factor XIa from Kordia, 15 min preincubation, 30 min at 22° C., fluorescence", "description": "The factor XIa inhibition of the inventive substances is determined using a biochemical test system which utilizes the reaction of a peptidic factor XIa substrate to determine the enzymatic activity of human factor XIa. Here, factor XIa cleaves from the peptic factor XIa substrate the C-terminal aminomethylcoumarin (AMC), the fluorescence of which is measured. The determinations are carried out in microtitre plates.\nTest substances are dissolved in dimethyl sulphoxide and serially diluted in dimethyl sulphoxide (3000 μM to 0.0078 μM; resulting final concentrations in the test: 50 μM to 0.00013 μM). In each case 1 μl of the diluted substance solutions is placed into the wells of white microtitre plates from Greiner (384 wells). Subsequently, the following are added successively: 20 μl of assay buffer (50 mmol/l Tris buffer pH 7.4; 100 mmol/l sodium chloride; 5 mmol/l calcium chloride; 0.1% bovine serum albumin) and 20 μl of factor XIa from Kordia (0.45 nM in assay buffer). After 15 min of incubation, the enzyme reaction is started by addition of 20 μl of the factor XIa substrate Boc-Glu(OBzl)-Ala-Arg-AMC dissolved in assay buffer (10 μM in assay buffer) from Bachem, the mixture is incubated at room temperature (22° C.) for 30 min and fluorescence is then measured (excitation: 360 nm, emission: 460 nm). The measured emissions of the test mixtures with test substance are compared to those of control mixtures without test substance (only dimethyl sulphoxide instead of test substance in dimethyl sulphoxide), and the IC50 values are calculated from the concentration/activity relationships."}, "[2]": {"system": "human and animal plasma", "assay": "Determination of anticoagulatory activity: activated partial thromboplastin time (aPTT) in plasma", "details": "concentration of test substance which brings about a 1.5-fold extension of the aPTT; plasma species not given", "description": "The anticoagulatory activity of the test substances is determined in vitro in human and animal plasma (for example mouse, rat, rabbit, pig and dog plasma). To this end, blood is drawn off in a mixing ratio of sodium citrate/blood of 1:9 using a 0.11 molar sodium citrate solution as receiver. Immediately after the blood has been drawn off, it is mixed thoroughly and centrifuged at about 4000 g for 15 minutes. The supernatant is pipetted off.\nThe activated partial thromboolastin time (aPTT) is determined in the presence of varying concentrations of test substance or the corresponding solvent using a commercial test kit (C. K. Prest from Diagnostica Stago). The test compounds are incubated with the plasma and the PTT reagent (cephalin, kaolin) at 37° C. for 3 minutes. Coagulation is then started by addition of a 25 mM aqueous calcium chloride solution, and the time when coagulation occurs is determined. The concentration of test substance which brings about a 1.5-fold extension of the aPTT is determined."}}, "note": "Counter-ions that a name gives are not always drawn.", "data": [{"smiles": "Cc1cc(C(=O)NC2CCC(N(C)C)CC2)ccc1-c1ccc(CC(NC(=O)[C@H]2CC[C@H](CN)CC2)C(=O)Nc2ccc(-c3nc(C(F)(F)C(F)(F)C(=O)O)n[nH]3)cc2)cc1", "note": "(stereo partly drawn) [Example 101, 3-[5-(4-{[(2S)-2-({[trans-4-(Aminomethyl)cyclohexyl]carbonyl}amino)-3-(4′-{[4-(dimethyl-amino)cyclohexyl]carbamoyl}-2′-methylbiphenyl-4-yl)propanoyl]amino}phenyl)-1H-1,2,4-triazol-3-yl]-2,2,3,3-tetrafluoropropanoic acid hydrochloride]", "values": [{"measurement": "IC50", "setting": "[1]", "value": 1.1, "unit": "nM"}, {"measurement": "aPTT", "setting": "[2]", "value": 0.07, "unit": "µmol/L"}]}, {"smiles": "Cc1cc(C(=O)N[C@H]2CCCNC2=O)ccc1-c1ccc(C[C@H](NC(=O)[C@H]2CC[C@H](CN)CC2)C(=O)Nc2ccc3c(Cl)n[nH]c3c2)cc1", "note": "[Example 93, 4′-{(2S)-2-({[trans-4-(Aminomethyl)cyclohexyl]carbonyl}amino)-3-[(3-chloro-1H-indazol-6-yl)amino]-3-oxopropyl}-2-methyl-N-[(3S)-2-oxopiperidin-3-yl]biphenyl-4-carboxamide hydrochloride]", "values": [{"measurement": "IC50", "setting": "[1]", "value": 2.4, "unit": "nM"}, {"measurement": "aPTT", "setting": "[2]", "value": 0.21, "unit": "µmol/L"}]}, {"smiles": "Cc1cc(C(=O)NC2CCC(N(C)Cc3ccccc3)CC2)ccc1-c1ccc(C[C@H](NC(=O)[C@H]2CC[C@H](CN)CC2)C(=O)Nc2ccc(-c3nnn[nH]3)cc2)cc1", "note": "(stereo partly drawn) [Example 146, 4′-[(2S)-2-({[trans-4-(Aminomethyl)cyclohexyl]carbonyl}amino)-3-oxo-3-{[4-(1H-tetrazol-5-yl)phenyl]amino}propyl]-N-{4-[benzyl(methyl)amino]cyclohexyl}-2-methylbiphenyl-4-carboxamide hydrochloride]", "values": [{"measurement": "IC50", "setting": "[1]", "value": 1.8, "unit": "nM"}, {"measurement": "aPTT", "setting": "[2]", "value": 0.07, "unit": "µmol/L"}]}, {"smiles": "Cc1c(C(=O)NC2CCNCC2)ccc(-c2ccc(C[C@H](NC(=O)[C@H]3CC[C@H](CN)CC3)C(=O)Nc3ccc(-c4nn[nH]n4)cc3)cc2)c1Cl", "note": "[Example 124, 4′-[(2S)-2-({[trans-4-(Aminomethyl)cyclohexyl]carbonyl}amino)-3-oxo-3-{[4-(2H-tetrazol-5-yl)phenyl]amino}propyl]-2-chloro-3-methyl-N-(piperidin-4-yl)biphenyl-4-carboxamide hydrochloride]", "values": [{"measurement": "IC50", "setting": "[1]", "value": 1.8, "unit": "nM"}, {"measurement": "aPTT", "setting": "[2]", "value": 0.1, "unit": "µmol/L"}]}, {"smiles": "Cc1cc(C(=O)NC2CCC(N(C)C)CC2(C)C)ccc1-c1ccc(C[C@H](NC(=O)[C@H]2CC[C@H](CN)CC2)C(=O)Nc2ccc(-c3nnn[nH]3)cc2)cc1", "note": "(stereo partly drawn) [Example 144, 4′-[(2S)-2-({[trans-4-(Aminomethyl)cyclohexyl]carbonyl}amino)-3-oxo-3-{[4-(1H-tetrazol-5-yl)phenyl]amino}propyl]-N-[4-(dimethylamino)-2,2-dimethylcyclohexyl]-2-methylbiphenyl-4-carboxamide hydrochloride]", "values": [{"measurement": "IC50", "setting": "[1]", "value": 1.8, "unit": "nM"}, {"measurement": "aPTT", "setting": "[2]", "value": 0.06, "unit": "µmol/L"}]}, {"smiles": "COCCOCCOCCOCCNC(=O)c1ccc(-c2ccc(C[C@H](NC(=O)[C@H]3CC[C@H](CN)CC3)C(=O)Nc3ccc(-c4nn[nH]n4)cc3)cc2)c(C)c1", "note": "[Example 27, 4′-[(2S)-2-({[trans-4-(Aminomethyl)cyclohexyl]carbonyl}amino)-3-oxo-3-{[4-(2H-tetrazol-5-yl)phenyl]amino}propyl]-2-methyl-N-(2,5,8,11-tetraoxatridecan-13-yl)biphenyl-4-carboxamide hydrochloride]", "values": [{"measurement": "IC50", "setting": "[1]", "value": 2.8, "unit": "nM"}, {"measurement": "aPTT", "setting": "[2]", "value": 0.24, "unit": "µmol/L"}]}, {"smiles": "Cc1cc(C(=O)NC2C3CNCC32)ccc1-c1ccc(C[C@H](NC(=O)[C@H]2CC[C@H](CN)CC2)C(=O)Nc2ccc(-c3nnc(C(F)(F)C(F)(F)C(=O)O)[nH]3)cc2)cc1", "note": "(stereo partly drawn) [Example 154, 3-(5-[4-({(2S)-2-({[trans-4-(Aminomethyl)cyclohexyl]carbonyl}amino)-3-[4′-(3-azabicyclo[3.1.0]hex-6-ylcarbamoyl)-2′-methylbiphenyl-4-yl]propanoyl}amino)phenyl]-4H-1,2,4-triazol-3-yl}-2,2,3,3-tetrafluoropropanoic acid hydrochloride]", "values": [{"measurement": "IC50", "setting": "[1]", "value": 2.8, "unit": "nM"}, {"measurement": "aPTT", "setting": "[2]", "value": 0.09, "unit": "µmol/L"}]}, {"smiles": "Cc1cc(C(=O)N[C@H]2CCNC2)ccc1-c1ccc(C[C@H](NC(=O)[C@H]2CC[C@H](CN)CC2)C(=O)Nc2ccc(-c3nnc(Cl)[nH]3)cc2)cc1", "note": "[Example 83, 4′-[(2S)-2-({[trans-4-(Aminomethyl)cyclohexyl]carbonyl}amino)-3-{[4-(3-chloro-4H-1,2,4-triazol-5-yl)phenyl]amino}-3-oxopropyl]-2-methyl-N-[(3S)-pyrrolidin-3-yl]biphenyl-4-carboxamide hydrochloride]", "values": [{"measurement": "IC50", "setting": "[1]", "value": 2.5, "unit": "nM"}, {"measurement": "aPTT", "setting": "[2]", "value": 0.09, "unit": "µmol/L"}]}, {"smiles": "Cc1cc(C(=O)NC2CCNCC2)ccc1-c1ccc(C[C@H](NC(=O)[C@H]2CC[C@H](CN)CC2)C(=O)Nc2ccc(-c3nn[nH]n3)cc2)cc1F", "note": "[Example 61, 4′-[(2S)-2-({[trans-4-(Aminomethyl)cyclohexyl]carbonyl}amino)-3-oxo-3-{[4-(2H-tetrazol-5-yl)phenyl]amino}propyl]-2′-fluoro-2-methyl-N-(piperidin-4-yl)biphenyl-4-carboxamide hydrochloride]", "values": [{"measurement": "IC50", "setting": "[1]", "value": 3.2, "unit": "nM"}, {"measurement": "aPTT", "setting": "[2]", "value": 0.07, "unit": "µmol/L"}]}, {"smiles": "NC[C@H]1CC[C@H](C(=O)N[C@@H](Cc2ccc(-c3ccc(C(=O)NC4CCNCC4)c(F)c3)cc2)C(=O)Nc2ccc(-c3nn[nH]n3)cc2)CC1", "note": "[Example 45, 4′-[(2S)-2-({[trans-4-(Aminomethyl)cyclohexyl]carbonyl}amino)-3-oxo-3-{[4-(2H-tetrazol-5-yl)phenyl]amino}propyl]-3-fluoro-N-(piperidin-4-yl)biphenyl-4-carboxamide hydrochloride]", "values": [{"measurement": "IC50", "setting": "[1]", "value": 6.2, "unit": "nM"}, {"measurement": "aPTT", "setting": "[2]", "value": 0.14, "unit": "µmol/L"}]}, {"smiles": "Cc1cc(C(=O)NC2CCNCC2)ccc1-c1ccc(C[C@H](NC(=O)[C@H]2CC[C@H](CN)CC2)C(=O)Nc2ccc(-c3c[nH]cn3)cc2)cc1", "note": "[Example 84, 4′-[(2S)-2-({[trans-4-(Aminomethyl)cyclohexyl]carbonyl}amino)-3-{[4-(1H-imidazol-4-yl)phenyl]amino}-3-oxopropyl]-2-methyl-N-(piperidin-4-yl)biphenyl-4-carboxamide hydrochloride]", "values": [{"measurement": "IC50", "setting": "[1]", "value": 18, "unit": "nM"}, {"measurement": "aPTT", "setting": "[2]", "value": 0.3, "unit": "µmol/L"}]}, {"smiles": "Cc1cc(C(=O)NC2CCNCC2)ccc1-c1ccc(C[C@H](NC(=O)[C@H]2CC[C@H](CN)CC2)C(=O)Nc2ccc3nc(-c4cccnc4)[nH]c3c2)cc1", "note": "[Example 59, 4′-[(2S)-2-({[trans-4-(Aminomethyl)cyclohexyl]carbonyl}amino)-3-oxo-3-{[2-(pyridin-3-yl)-1H-benzimidazol-6-yl]amino}propyl]-2-methyl-N-(piperidin-4-yl)biphenyl-4-carboxamide hydrochloride]", "values": [{"measurement": "IC50", "setting": "[1]", "value": 34, "unit": "nM"}, {"measurement": "aPTT", "setting": "[2]", "value": 0.51, "unit": "µmol/L"}]}, {"smiles": "Cc1cc(C(=O)NC2CCNCC2)ccc1-c1ccc(C[C@H](NC(=O)[C@H]2CC[C@H](CN)CC2)C(=O)Nc2ccc(-c3nnc(CCC(=O)O)[nH]3)cc2)cc1", "note": "[Example 152, 3-{(5-[4-({(2S)-2-({[trans-4-(Aminomethyl)cyclohexyl]carbonyl}amino)-3-[2′-methyl-4′-(piperidin-4-ylcarbamoyl)biphenyl-4-yl]propanoyl}amino)phenyl]-4H-1,2,4-triazol-3-yl}propanoic acid hydrochloride]", "values": [{"measurement": "IC50", "setting": "[1]", "value": 5.3, "unit": "nM"}, {"measurement": "aPTT", "setting": "[2]", "value": 0.7, "unit": "µmol/L"}]}, {"smiles": "Cc1cc(C(=O)N[C@@H]2C[C@@H](CO)NC2=O)ccc1-c1ccc(C[C@H](NC(=O)[C@H]2CC[C@H](CN)CC2)C(=O)Nc2ccc3[nH]c(=O)[nH]c3c2)cc1", "note": "[Example 97, 4′-{(2S)-2-({[trans-4-(Aminomethyl)cyclohexyl]carbonyl}amino)-3-oxo-3-[(2-oxo-2,3-dihydro-1H-benzimidazol-5-yl)amino]propyl}-N-[(3R,5S)-5-(hydroxymethyl)-2-oxopyrrolidin-3-yl]-2-methylbiphenyl-4-carboxamide hydrochloride]", "values": [{"measurement": "IC50", "setting": "[1]", "value": 3.2, "unit": "nM"}, {"measurement": "aPTT", "setting": "[2]", "value": 0.06, "unit": "µmol/L"}]}, {"smiles": "Cc1cc(C(=O)NC2CCN(C)CC2)ccc1-c1ccc(C[C@H](NC(=O)[C@H]2CC[C@H](CN)CC2)C(=O)Nc2ccc(-c3nc(C(F)(F)C(F)(F)C(=O)O)n[nH]3)cc2)cc1", "note": "[Example 130, 3-[5-(4-{[(2S)-2-({[trans-4-(Aminomethyl)cyclohexyl]carbonyl}amino)-3-{2′-methyl-4′-[(1-methylpiperidin-4-yl)carbamoyl]biphenyl-4-yl}propanoyl]amino}phenyl)-1H-1,2,4-triazol-3-yl]-2,2,3,3-tetrafluoropropanoic acid]", "values": [{"measurement": "aPTT", "setting": "[2]", "value": 0.12, "unit": "µmol/L"}]}]}
